What was measured:
[1] = species on record: Mus musculus; experiment: animal or person; format: functional; conditions: po
[2] = species on record: Mus musculus; experiment: animal or person; format: functional; conditions: sc

Structure (SMILES)	ED50 [1] [mg/kg]	ED50 [2] [mg/kg]
CN(C(=O)Cc1ccc(Cl)c(Cl)c1)[C@H]1CCc2ccccc2[C@@H]1N1CCCC1.Cl	> 81	0.16
COc1ccc2c(c1)CC[C@H](N1CCCC1)[C@H]2N(C)C=O.Cl	81	47
COc1cccc2c1CC[C@H](N1CCCC1)[C@H]2N(C)C(=O)CCc1ccc(Cl)c(Cl)c1.Cl	81	38
COc1ccc2c(c1)CC[C@H](N1C=CN(C)CC1)[C@H]2N(C)C(C)=O.Cl	> 81	> 81
COc1cccc2c1CC[C@H](N1CCCC1)[C@H]2N(C)C(=O)CSc1ccc(Cl)c(Cl)c1.Cl	> 81	47
COc1ccc2c(c1)CC[C@H](N1CCCCC1)[C@H]2N(C)C(C)=O.Cl	> 81	> 81
CN(C(=O)Cc1ccc(Cl)c(Cl)c1)[C@H]1c2cccc(OC(=O)c3ccccc3)c2CC[C@@H]1N1CCCC1.Cl	6.4	0.71
CN(C(=O)Cc1ccc(Cl)c(Cl)c1)[C@H]1c2ccccc2-c2ccccc2[C@@H]1N1CCCC1.Cl	> 81	> 81
COc1ccc2c(c1)CC[C@H](N1CC=CC1)[C@H]2N(C)C(C)=O.Cl	3.4	0.24

Reference: ChEMBL document CHEMBL1159140, “DuP 747: sar study” (1992)
